Measurements from PubChem BioAssay AID1963427 (Molecular Pharmacology Branch, DTP, NCI, 2024).
One block for each compound: values may come before it.

System: 317291-083-R-J1-PDC complex spheroid growth
Assay: Anticancer human tumor 317291-083-R-J1-PDC patient-derived soft tissue sarcoma cell line growth inhibition [Asc]
Conditions: for IC50: curve of first compound; for viability, T/C: stronger effect = lower value
Procedure, shortened: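 Concentration series start at each agent's clinical Cmax, or at 10 microM when none is established, and drop in half-log steps; agents are applied alone or together to complex spheroids built with HUVEC and hMSC.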

[1] = second compound 0.00949 µM, first compound 0.00316 µM
[2] = second compound 0.00949 µM, first compound 0.01 µM
[3] = second compound 0.00949 µM, first compound 0.0316 µM
[4] = second compound 0.00949 µM, first compound 0.1 µM
[5] = second compound 0.03 µM, first compound 0.00316 µM
[6] = second compound 0.03 µM, first compound 0.01 µM
[7] = second compound 0.03 µM, first compound 0.0316 µM
[8] = second compound 0.03 µM, first compound 0.1 µM
[9] = second compound 0.0949 µM, first compound 0.00316 µM
[10] = second compound 0.0949 µM, first compound 0.01 µM
[11] = second compound 0.0949 µM, first compound 0.0316 µM
[12] = second compound 0.0949 µM, first compound 0.1 µM
[13] = second compound 0.3 µM, first compound 0.00316 µM
[14] = second compound 0.3 µM, first compound 0.01 µM
[15] = second compound 0.3 µM, first compound 0.0316 µM
[16] = second compound 0.3 µM, first compound 0.1 µM
[17] = second compound 0.949 µM, first compound 0.00316 µM
[18] = second compound 0.949 µM, first compound 0.01 µM
[19] = second compound 0.949 µM, first compound 0.0316 µM
[20] = second compound 0.949 µM, first compound 0.1 µM
[21] = second compound 3 µM, first compound 0.00316 µM
[22] = second compound 3 µM, first compound 0.01 µM
[23] = second compound 3 µM, first compound 0.0316 µM
[24] = second compound 3 µM, first compound 0.1 µM
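Also: compound exposure lasted seven days after spheroids formed for three days.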
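For viability, T/C in this document: 100% = DMSO vehicle control wells.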

IC50 (second compound 0.00949 µM): 177 nM
IC50 (second compound 0.03 µM): 182 nM
IC50 (second compound 0.0949 µM): 213 nM
IC50 (second compound 0.3 µM): 173 nM
IC50 (second compound 0.949 µM): 180 nM
IC50 (second compound 3 µM): 127 nM
SMILES: COc1c(OCCCN2CCOCC2)ccc2c3n(c(=NC(=O)c4cnc(N)nc4)nc12)CCN3 + CCN1C(C(=O)NC23CCC(C(=O)O)(CC2)CC3)C(c2cccc(Cl)c2F)C2(C(=O)Nc3cc(Cl)ccc32)C12CCCCC2
viability, T/C [1]: 95.6%
viability, T/C [2]: 85.8%
viability, T/C [3]: 85%
viability, T/C [4]: 64.9%
viability, T/C (second compound 0.00949 µM, first compound 0.316 µM): 34.6%
viability, T/C (second compound 0.00949 µM, first compound 1 µM): 16.3%
viability, T/C [5]: 95.6%
viability, T/C [6]: 79.2%
viability, T/C [7]: 79.5%
viability, T/C [8]: 56.2%
viability, T/C (second compound 0.03 µM, first compound 0.316 µM): 43.8%
viability, T/C (second compound 0.03 µM, first compound 1 µM): 13.9%
viability, T/C [9]: 93.7%
viability, T/C [10]: 83.4%
viability, T/C [11]: 81.3%
viability, T/C [12]: 79.4%
viability, T/C (second compound 0.0949 µM, first compound 0.316 µM): 34.8%
viability, T/C (second compound 0.0949 µM, first compound 1 µM): 16.9%
viability, T/C [13]: 120%
viability, T/C [14]: 76.9%
viability, T/C [15]: 84.7%
viability, T/C [16]: 67%
viability, T/C (second compound 0.3 µM, first compound 0.316 µM): 37.1%
viability, T/C (second compound 0.3 µM, first compound 1 µM): 17.4%
viability, T/C [17]: 85.1%
viability, T/C [18]: 74%
viability, T/C [19]: 86.8%
viability, T/C [20]: 58.5%
viability, T/C (second compound 0.949 µM, first compound 0.316 µM): 39.2%
viability, T/C (second compound 0.949 µM, first compound 1 µM): 15.4%
viability, T/C [21]: 88.2%
viability, T/C [22]: 71%
viability, T/C [23]: 73.3%
viability, T/C [24]: 55%
viability, T/C (second compound 3 µM, first compound 0.316 µM): 32.8%
viability, T/C (second compound 3 µM, first compound 1 µM): 15.2%

IC50 (second compound 0.00949 µM): > 100 nM
IC50 (second compound 0.03 µM): > 100 nM
IC50 (second compound 0.0949 µM): > 100 nM
IC50 (second compound 0.3 µM): > 100 nM
IC50 (second compound 0.949 µM): > 100 nM
IC50 (second compound 3 µM): > 100 nM
SMILES: NC1CCC(NC2CC2c2ccccc2)CC1 (centres undefined) + CCN1C(C(=O)NC23CCC(C(=O)O)(CC2)CC3)C(c2cccc(Cl)c2F)C2(C(=O)Nc3cc(Cl)ccc32)C12CCCCC2
viability, T/C (second compound 0.00949 µM, first compound 0.000316 µM): 92.4%
viability, T/C (second compound 0.00949 µM, first compound 0.001 µM): 103%
viability, T/C [1]: 96.6%
viability, T/C [2]: 97%
viability, T/C [3]: 95.5%
viability, T/C [4]: 94.2%
viability, T/C (second compound 0.03 µM, first compound 0.000316 µM): 109%
viability, T/C (second compound 0.03 µM, first compound 0.001 µM): 100%
viability, T/C [5]: 106%
viability, T/C [6]: 114%
viability, T/C [7]: 107%
viability, T/C [8]: 94.2%
viability, T/C (second compound 0.0949 µM, first compound 0.000316 µM): 103%
viability, T/C (second compound 0.0949 µM, first compound 0.001 µM): 81.3%
viability, T/C [9]: 87.6%
viability, T/C [10]: 95.7%
viability, T/C [11]: 106%
viability, T/C [12]: 108%
viability, T/C (second compound 0.3 µM, first compound 0.000316 µM): 116%
viability, T/C (second compound 0.3 µM, first compound 0.001 µM): 108%
viability, T/C [13]: 98.9%
viability, T/C [14]: 80.3%
viability, T/C [15]: 102%
viability, T/C [16]: 111%
viability, T/C (second compound 0.949 µM, first compound 0.000316 µM): 98.9%
viability, T/C (second compound 0.949 µM, first compound 0.001 µM): 120%
viability, T/C [17]: 76.2%
viability, T/C [18]: 93.8%
viability, T/C [19]: 97.6%
viability, T/C [20]: 106%
viability, T/C (second compound 3 µM, first compound 0.000316 µM): 99.7%
viability, T/C (second compound 3 µM, first compound 0.001 µM): 107%
viability, T/C [21]: 81.5%
viability, T/C [22]: 74.2%
viability, T/C [23]: 83.6%
viability, T/C [24]: 74.3%
